Laboratory results as given in publication PMC10584170, “Machine learning-based phenotypic imaging to characterise the targetable biology of Plasmodium falciparum male gametocytes for the development of transmission-blocking antimalarials” (PLOS Pathogens, 2023).
Where two headings read alike, the source gives them in different places.

How the values were obtained:
[1] = tested on: P. falciparum female gametocytes; test: P. falciparum Dual Gamete Formation Assay (PfDGFA), female readout (Pfs25-positive female gametes); assay type: cell-based, Plasmodium falciparum NF54; conditions: for Selectivity ratio F: HepG2 Tox50 versus female IC50; for Average inhibition female (%) / % inhibition female (individual replicates) R1 / % inhibition female (individual replicates) R3 / % inhibition female (individual replicates) R4 / inhibition at 2 µM: 24h preincubation with gametocytes; for IC50: PfDGFA, 24 h incubation with gametocytes before induction, female gamete readout, read-out: Female IC50; for HitlevelF: number of replicates with >50% inhibition in the female readout
Method in brief: (§1)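 Day-14 NF54 gametocytes were incubated with compound for 24 h at 37°C under 1% O2/3% CO2/96% N2. Gametogenesis was triggered with ookinete medium (0.1 μM xanthurenic acid) plus Cy3-anti-Pfs25, and exflagellation was imaged by brightfield after cooling to 4°C then 28°C. Females were imaged by Pfs25 fluorescence 24 h later at 28°C.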

[2] = tested on: P. falciparum male gametocytes; test: P. falciparum Dual Gamete Formation Assay (PfDGFA), male readout (exflagellation); assay type: cell-based, Plasmodium falciparum NF54; conditions: for Selectivity Ratio M: HepG2 Tox50 versus male IC50; for Average inhibition male (%) / % inhibition male (individual replicates) R1 / % inhibition male (individual replicates) R3 / % inhibition male (individual replicates) R4 / inhibition at 2 µM: 24h preincubation with gametocytes; for % inhibition male (individual replicates) R3: replicate R3; for IC50: PfDGFA, 24 h incubation with gametocytes before induction, exflagellation readout, read-out: Male IC50; for HitlevelM: number of replicates with >50% inhibition in the male readout
Method in brief: as §1

[3] = tested on: HepG2 cells; test: HepG2 cytotoxicity counter-screen; conditions: cytotoxic activity against HepG2 cells
[4] = PfDGFA at 2µM, average of replicates

Nc1nc(N)c2c(ccc3c2ccn3Cc2ccc(-c3ccccc3)cc2)n1 [TCMDC-137813]
Selectivity ratio F [1]: 0.44 | Average inhibition female (%) [1, 4]: 90.5% | % inhibition female (individual replicates) R1 ([1]; PfDGFA at 2µM, replicate R1): 93.6% | % inhibition female (individual replicates) R3 ([1]; PfDGFA at 2µM, replicate R3): 92.9% | % inhibition female (individual replicates) R4 ([1]; PfDGFA at 2µM, replicate R4): 90.8% | IC50 [1]: 1030 nM | HitlevelF ([1]; 2µM): 4 | Selectivity Ratio M [2]: 0.97 | Average inhibition male (%) [2, 4]: 70.1% | % inhibition male (individual replicates) R1 ([2]; PfDGFA at 2µM, replicate R1): 91.2% | % inhibition male (individual replicates) R3 ([2]; PfDGFA at 2µM): 64.2% | % inhibition male (individual replicates) R4 ([2]; PfDGFA at 2µM, replicate R4): 76.3% | IC50 [2]: 470 nM | HitlevelM ([2]; 2µM): 3 | Tox50 [3]: 0.46 µM

C#CCCOc1ccc2ccccc2c1CNCCCCCCNCc1c(OCCC#C)ccc2ccccc12 [TCMDC-137832]
Selectivity ratio F [1]: 1.37 | Average inhibition female (%) [1, 4]: 22.9% | % inhibition female (individual replicates) R1 ([1]; PfDGFA at 2µM, replicate R1): 24.2% | % inhibition female (individual replicates) R3 ([1]; PfDGFA at 2µM, replicate R3): 11.7% | % inhibition female (individual replicates) R4 ([1]; PfDGFA at 2µM, replicate R4): 20.0% | IC50 [1]: 2880 nM | HitlevelF ([1]; 2µM): 0 | Selectivity Ratio M [2]: 2.13 | Average inhibition male (%) [2, 4]: 78.9% | % inhibition male (individual replicates) R1 ([2]; PfDGFA at 2µM, replicate R1): 82.1% | % inhibition male (individual replicates) R3 ([2]; PfDGFA at 2µM): 58.7% | % inhibition male (individual replicates) R4 ([2]; PfDGFA at 2µM, replicate R4): 86.2% | IC50 [2]: 1850 nM | HitlevelM ([2]; 2µM): 4 | Tox50 [3]: 3.94 µM

CS(=O)(=O)O.FC(F)(F)COc1c(CNCCCCCCNCc2ccc3ccccc3c2OCC(F)(F)F)ccc2ccccc12 [TCMDC-137833]
Selectivity ratio F [1]: 0.51 | Average inhibition female (%) [1, 4]: 29.5% | % inhibition female (individual replicates) R1 ([1]; PfDGFA at 2µM, replicate R1): 27.4% | % inhibition female (individual replicates) R3 ([1]; PfDGFA at 2µM, replicate R3): 10.4% | % inhibition female (individual replicates) R4 ([1]; PfDGFA at 2µM, replicate R4): 40.2% | IC50 [1]: 6570 nM | HitlevelF ([1]; 2µM): 0 | Selectivity Ratio M [2]: 1.9 | Average inhibition male (%) [2, 4]: 69.2% | % inhibition male (individual replicates) R1 ([2]; PfDGFA at 2µM, replicate R1): 70.5% | % inhibition male (individual replicates) R3 ([2]; PfDGFA at 2µM): 47.4% | % inhibition male (individual replicates) R4 ([2]; PfDGFA at 2µM, replicate R4): 77.6% | IC50 [2]: 1750 nM | HitlevelM ([2]; 2µM): 3 | Tox50 [3]: 3.32 µM

CS(=O)(=O)O.c1ccc2c(CNCCCCCCNCc3c(OCC4CC4)ccc4ccccc34)c(OCC3CC3)ccc2c1 [TCMDC-137839]
Average inhibition female (%) ([1]; 2µM, average of replicates): 78.7% | % inhibition female (individual replicates) R1 ([1]; 2µM, replicate R1): 59.7% | % inhibition female (individual replicates) R3 ([1]; 2µM, replicate R3): 91.2% | % inhibition female (individual replicates) R4 ([1]; 2µM, replicate R4): 88.3% | Selectivity ratio F [1]: 1.36 | IC50 [1]: 2360 nM | Average inhibition male (%) ([2]; 2µM, average of replicates): 95.2% | % inhibition male (individual replicates) R1 ([2]; 2µM, replicate R1): 96.4% | % inhibition male (individual replicates) R3 ([2]; 2µM): 98.9% | % inhibition male (individual replicates) R4 ([2]; 2µM, replicate R4): 103.0% | Selectivity Ratio M [2]: 2.29 | IC50 [2]: 1400 nM | Tox50 [3]: 3.2 µM

Nc1nc(N)c2c(ccc3[nH]c(-c4ccccc4Cl)nc32)n1 [TCMDC-137840]
Average inhibition female (%) ([1]; 2µM, average of replicates): 54.2% | % inhibition female (individual replicates) R1 ([1]; 2µM, replicate R1): 66.8% | % inhibition female (individual replicates) R3 ([1]; 2µM, replicate R3): 50.3% | % inhibition female (individual replicates) R4 ([1]; 2µM, replicate R4): 52.5% | Selectivity ratio F [1]: 0.88 | IC50 [1]: 2320 nM | Average inhibition male (%) ([2]; 2µM, average of replicates): 99.1% | % inhibition male (individual replicates) R1 ([2]; 2µM, replicate R1): 101.1% | % inhibition male (individual replicates) R3 ([2]; 2µM): 94.6% | % inhibition male (individual replicates) R4 ([2]; 2µM, replicate R4): 101.3% | Selectivity Ratio M [2]: 2.01 | IC50 [2]: 1020 nM | Tox50 [3]: 2.04 µM

COc1cc2ccccc2c(OC)c1CNCCCCCCNCc1c(OC)cc2ccccc2c1OC.CS(=O)(=O)O [TCMDC-137843]
Selectivity ratio F [1]: 0.88 | Average inhibition female (%) [1, 4]: 38.4% | % inhibition female (individual replicates) R1 ([1]; PfDGFA at 2µM, replicate R1): 31.9% | % inhibition female (individual replicates) R3 ([1]; PfDGFA at 2µM, replicate R3): 18.8% | % inhibition female (individual replicates) R4 ([1]; PfDGFA at 2µM, replicate R4): 37.8% | IC50 [1]: 4090 nM | HitlevelF ([1]; 2µM): 1 | Selectivity Ratio M [2]: 2.16 | Average inhibition male (%) [2, 4]: 82.6% | % inhibition male (individual replicates) R1 ([2]; PfDGFA at 2µM, replicate R1): 82.1% | % inhibition male (individual replicates) R3 ([2]; PfDGFA at 2µM): 58.2% | % inhibition male (individual replicates) R4 ([2]; PfDGFA at 2µM, replicate R4): 98.9% | IC50 [2]: 1660 nM | HitlevelM ([2]; 2µM): 4 | Tox50 [3]: 3.59 µM

CCCCOc1c(CCNCCCCNCCc2cc(OC)c3ccccc3c2OCCCC)cc(OC)c2ccccc12.CS(=O)(=O)O [TCMDC-137848]
Selectivity ratio F [1]: 2.45 | Average inhibition female (%) [1, 4]: 42.4% | % inhibition female (individual replicates) R1 ([1]; PfDGFA at 2µM, replicate R1): 32.5% | % inhibition female (individual replicates) R3 ([1]; PfDGFA at 2µM, replicate R3): 23.0% | % inhibition female (individual replicates) R4 ([1]; PfDGFA at 2µM, replicate R4): 45.3% | IC50 [1]: 1290 nM | HitlevelF ([1]; 2µM): 1 | Selectivity Ratio M [2]: 2.01 | Average inhibition male (%) [2, 4]: 82.6% | % inhibition male (individual replicates) R1 ([2]; PfDGFA at 2µM, replicate R1): 89.8% | % inhibition male (individual replicates) R3 ([2]; PfDGFA at 2µM): 50.4% | % inhibition male (individual replicates) R4 ([2]; PfDGFA at 2µM, replicate R4): 92.9% | IC50 [2]: 1570 nM | HitlevelM ([2]; 2µM): 4 | Tox50 [3]: 3.16 µM

CS(=O)(=O)O.FC(F)(F)COc1ccc(CNCCCCCCNCc2ccc(OCC(F)(F)F)c3ccccc23)c2ccccc12 [TCMDC-137853]
Average inhibition female (%) ([1]; 2µM, average of replicates): 50.4% | % inhibition female (individual replicates) R1 ([1]; 2µM, replicate R1): 38.4% | % inhibition female (individual replicates) R3 ([1]; 2µM, replicate R3): 35.3% | % inhibition female (individual replicates) R4 ([1]; 2µM, replicate R4): 42.3% | Selectivity ratio F [1]: 2.44 | IC50 [1]: 520 nM | Average inhibition male (%) ([2]; 2µM, average of replicates): 98.2% | % inhibition male (individual replicates) R1 ([2]; 2µM, replicate R1): 97.9% | % inhibition male (individual replicates) R3 ([2]; 2µM): 96.8% | % inhibition male (individual replicates) R4 ([2]; 2µM, replicate R4): 101.6% | Selectivity Ratio M [2]: 4.06 | IC50 [2]: 310 nM | Tox50 [3]: 1.26 µM

COc1c(CCNCCCCNCCc2cc(Cl)c3ccccc3c2OC)cc(Cl)c2ccccc12.CS(=O)(=O)O [TCMDC-137869]
Average inhibition female (%) ([1]; 2µM, average of replicates): 93.4% | % inhibition female (individual replicates) R1 ([1]; 2µM, replicate R1): 93.5% | % inhibition female (individual replicates) R3 ([1]; 2µM, replicate R3): 100.2% | % inhibition female (individual replicates) R4 ([1]; 2µM, replicate R4): 88.2% | Selectivity ratio F [1]: 2.39 | IC50 [1]: 1250 nM | Average inhibition male (%) ([2]; 2µM, average of replicates): 96.4% | % inhibition male (individual replicates) R1 ([2]; 2µM, replicate R1): 99.7% | % inhibition male (individual replicates) R3 ([2]; 2µM): 90.8% | % inhibition male (individual replicates) R4 ([2]; 2µM, replicate R4): 101.9% | Selectivity Ratio M [2]: 3.25 | IC50 [2]: 920 nM | Tox50 [3]: 2.99 µM

Oc1cccc(CNCCCN(Cc2ccccc2)c2ccccc2)c1 [TCMDC-137875]
Selectivity ratio F [1]: 1.79 | inhibition at 2 µM ([1]; Plasmodium falciparum, 2µM, average of replicates, read-out: Average inhibition female (%)): 33.5% | inhibition at 2 µM ([1]; Plasmodium falciparum, 2µM, replicate R1, read-out: % inhibition female (individual replicates) R1): 43.5% | inhibition at 2 µM ([1]; Plasmodium falciparum, 2µM, replicate R2, read-out: % inhibition female (individual replicates) R2): 32% | inhibition at 2 µM ([1]; Plasmodium falciparum, 2µM, replicate R3, read-out: % inhibition female (individual replicates) R3): 28.3% | inhibition at 2 µM ([1]; Plasmodium falciparum, 2µM, replicate R4, read-out: % inhibition female (individual replicates) R4): 30.2% | IC50 ([1]; Plasmodium falciparum): 7740 nM | Selectivity Ratio M [2]: 13 | inhibition at 2 µM ([2]; Plasmodium falciparum, 2µM, average of replicates, read-out: Average inhibition male (%)): 97.7% | inhibition at 2 µM ([2]; Plasmodium falciparum, 2µM, replicate R1, read-out: % inhibition male (individual replicates) R1): 96.8% | inhibition at 2 µM ([2]; Plasmodium falciparum, 2µM, replicate R2, read-out: % inhibition male (individual replicates) R2): 93.7% | inhibition at 2 µM ([2]; Plasmodium falciparum, 2µM, replicate R4, read-out: % inhibition male (individual replicates) R4): 103% | IC50 ([2]; Plasmodium falciparum): 1060 nM | Tox50 [3]: 13.84 µM
